# Test results as given in publication PMC3006207, “Phosphorylation-Dependent Protein Interaction with Trypanosoma brucei 14-3-3 Proteins that Display Atypical Target Recognition” (PLoS ONE, 2010).
# Square brackets hold non-standard residues; d marks the D form. Ends that are not written are not given here. Peptide text beside a SMILES is read from it. * marks the point of attachment. Biotin = O=C1N[C@H]2[C@H](CS[C@H]2CCCCC(=O)*)N1; pS = N[C@@H](COP(=O)(O)O)C(=O)O
# T1: human 14-3-3τ (Homo sapiens, UniProt P27348)
# T1 construct: made in house
# T1 sequence (P27348 1-245): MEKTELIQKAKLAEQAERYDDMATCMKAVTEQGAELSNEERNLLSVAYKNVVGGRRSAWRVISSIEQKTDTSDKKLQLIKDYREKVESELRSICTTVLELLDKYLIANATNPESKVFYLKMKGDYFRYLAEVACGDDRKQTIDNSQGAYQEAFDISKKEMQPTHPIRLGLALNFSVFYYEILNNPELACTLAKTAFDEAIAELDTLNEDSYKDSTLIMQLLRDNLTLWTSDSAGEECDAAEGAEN
# T2: MBP-14-3-3τ (human, UniProt P27348 1-245)
# T2 construct: human 14-3-3 tau; source: purified
# T2 sequence (looked up): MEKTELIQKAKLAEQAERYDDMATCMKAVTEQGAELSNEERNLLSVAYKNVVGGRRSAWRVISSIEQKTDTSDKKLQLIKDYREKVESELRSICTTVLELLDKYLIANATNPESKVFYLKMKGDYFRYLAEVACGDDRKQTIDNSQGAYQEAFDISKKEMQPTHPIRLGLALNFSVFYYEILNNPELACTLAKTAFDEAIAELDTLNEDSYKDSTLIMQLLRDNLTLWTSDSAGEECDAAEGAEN
# T3: GST-14-3-3ζ (human 14-3-3ζ) (human, UniProt P63104 1-245)
# T3 construct: human 14-3-3 zeta
# T3 sequence (looked up): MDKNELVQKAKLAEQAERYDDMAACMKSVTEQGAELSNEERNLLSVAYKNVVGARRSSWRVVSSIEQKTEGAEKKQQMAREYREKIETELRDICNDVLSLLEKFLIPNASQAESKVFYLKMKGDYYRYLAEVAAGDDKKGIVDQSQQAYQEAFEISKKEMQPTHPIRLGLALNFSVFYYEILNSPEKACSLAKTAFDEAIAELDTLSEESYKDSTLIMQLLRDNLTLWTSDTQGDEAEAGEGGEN
# T4: GST-14-3-3τ (human 14-3-3τ fused to glutathione S-transferase) (human, UniProt P27348 1-245)
# T4 construct: human 14-3-3 tau; also called GST-τ; source: purified
# T4 sequence (looked up): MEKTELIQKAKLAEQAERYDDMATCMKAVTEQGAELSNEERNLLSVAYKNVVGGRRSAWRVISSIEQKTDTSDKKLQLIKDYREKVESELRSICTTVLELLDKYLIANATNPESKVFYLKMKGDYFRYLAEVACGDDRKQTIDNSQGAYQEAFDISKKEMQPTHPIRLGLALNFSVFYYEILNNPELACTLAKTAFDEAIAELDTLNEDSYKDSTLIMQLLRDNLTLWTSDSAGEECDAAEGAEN
# Key:
# [1] = system: proteins of HeLa and T. brucei PCF cell lysates; experiment: Far-Western blot analysis of HeLa and PCF cell lysates with 14-3-3 probes; type: binding, HeLa (human) and Trypanosoma brucei; settings: for effect on interacting proteins, CalA (−) vs (+), with or without calcium: 1 mM CaCl2, T. brucei 14-3-3 probe 2 µg/ml, representative of three independent experiments
# Description: Far-Western blot analysis of Ser/Thr phosphatase inhibitor Calyculin A (CalA) treated + and/or untreated – of HeLa and/or 29-13 PCF cell lysates was performed. HeLa cells and/or 29-13 PCF cells were lysed with SDS-gel loading buffer supplemented with 2-mercaptoethanol (Bio-Rad, Hercules, CA) and sonicated. The cell lysates equivalent to 5×10^5 HeLa cells and 1×10^7 29-13 PCF cells were applied on 4–20% SDS-PAGE (Daiichi, Japan) and transferred to nitrocellulose filters (Millipore, Bedford, MA). The filters were denatured with denaturation buffer (6M guanidine-HCl, 50 mM Tris-HCl, pH 8.0, and 1 mM dithiothreitol [DTT]). The denaturation buffer was then diluted with an equal volume of 50 mM Tris-HCl, pH 8.0 with 1 mM DTT. After 15 min of denaturation, the filters were then treated with 2x diluted denaturation buffer. The same step was repeatedly carried out eight times and then renatured filters were washed twice with TTBS (50 mM Tris-HCl, pH 7.4, 0.1% Tween 20, and 150 mM NaCl). The resultant filters were blocked with TTBS containing 4% skim milk plus 1 mM DTT. Then the filters were incubated overnight with 1 or 2 µg/ml of GST-14-3-3 probes in 4% skim milk containing the blocking solution at 4°C. The filters were washed three times with TTBS and incubated with anti-GST polyclonal antibodies (Sigma) followed by horseradish peroxidase (HRP)-labeled anti-rabbit goat IgG (Jackson Immunoresearch Laboratories, West Grove, PA).
# human 14-3-3τ = target: T1, human 14-3-3τ; experiment: Surface plasmon resonance (BIAcore), phosphopeptide vs 14-3-3τ; type: binding; settings: 14-3-3τ; BIAcore 2000, BIAevaluation 3.0; biotinylated peptide on streptavidin chip (220 RU); HBS-EP buffer, 20 µl/min; read-out: estimated Kd of the mode 1 phosphopeptide
# Description: The surface plasmon resonance measurement was carried out using BIAcore 2000. A resonance unit value of 220 of biotinylated phosphopeptide pSRaf 259 (biotin-MAGGGRQRSTpSTPN) (mode 1 peptide) was coupled to a streptavidin-coated sensor chip (SA5, BIAcore). In the next step, 200 nM each of purified GST-14-3-3I, GST-14-3-3II, and GST–14-3-3τ, or 500 nM each of MBP-14-3-3I, MBP-14-3-3II, and MBP-14-3-3τ in HBS-EP buffer (BIAcore) was injected at a flow rate of 20 µl/min. A resonance unit value of 296 of biotinylated mode 2 peptide (biotin-MAGGGRLYHpSLP) was also coupled to SA5 and 200 nM each of GST-14-3-3I, GST-14-3-3II and GST-14-3-3τ in HBS-EP buffer, and was injected in the same manner.
# [2] = system: heterodimeric T. brucei 14-3-3I+II; experiment: NC-filter binding assay, heterodimeric T. brucei 14-3-3; set-up: species or system Trypanosoma brucei; settings: biotinylated peptide + streptavidine on nitrocellulose filter, GST-14-3-3 detected with α-GST antibodies
# Description: (§1) Five µl of 1 mM biotinylated peptides, purchased from Scrum (Japan) were mixed with 15 µl of streptavidine (1 mg/ml) in the presence of 0.1% Tween20, spotted on NC-filters and dried. Filters were washed with TTBS, blocked with Protein-Free Blocking Buffer (Pierce), and then incubated with GST-14-3-3 proteins in TTBS containing 20% Protein-Free Blocking Buffer and 1 mM DTT. The filters were extensively washed four times with TTBS, and detected with anti-GST antibodies.
# human 14-3-3ζ = experiment: NC-filter binding assay, human 14-3-3ζ; settings: biotinylated peptide + streptavidine on nitrocellulose filter; GST-14-3-3ζ detected with α-GST antibodies
# Description: as §1
# [3] = system: endogenous 14-3-3II (T. brucei PCF lysates); experiment: Peptide pull-down assay, endogenous 14-3-3II; type: binding, Trypanosoma brucei
# Description: (§2) Ten µl of streptavidin agarose beads (Sigma Chemical Co., St. Louis, MO) were incubated with 10 µl of 100 µM of pRaf 259 (biotin- MAGGGRQRSTSTPN) and/or pSRaf 259 at room temperature for 30 min and the beads were washed three times with lysis buffer (150 mM NaCl, 10 mM HEPES, pH 7.5, 0.2% NP-40, 50 mM NaF, 1 mM Na3VO4 and Roche protease inhibitor tablets). Next, 1×10^9 cells of T. brucei PCF were lysed with 2 ml of the lysis buffer on ice. Insoluble proteins were pelleted and 1 ml of the supernatant was used for each peptide pull-down assay. The lysates were incubated with each bead, rotated at 4°C for 2 hrs and washed with the lysis buffer three times. Twenty µl of 2xSDS Gel loading buffer with 2-mercaptoethanol were added to the washed beads, and 5 µl of eluates were run on 10–20% SDS-PAGE. The blots were detected with α-I and/or α–II Abs as described previously.
# [4] = system: endogenous 14-3-3I (T. brucei PCF lysates); experiment: Peptide pull-down assay, endogenous 14-3-3I; type: binding, Trypanosoma brucei
# Description: as §2
# MBP-14-3-3τ = target: T2, MBP-14-3-3τ; experiment: SPR; BIAcore 2000; biotinylated phosphopeptide coupled to a streptavidin-coated chip (220 RU mode 1, 296 RU mode 2); 200 nM GST-14-3-3 or 500 nM MBP-14-3-3 proteins injected in HBS-EP at 20 µl/min; Kd by BIAevaluation 3.0; settings: both partners purified
# [5] = target: T3, GST-14-3-3ζ (human 14-3-3ζ); experiment: far-Western, overlay or dot blot; NC-filter binding assay: biotinylated peptides (1 mM) mixed with streptavidin, spotted on nitrocellulose and dried; incubated with GST-14-3-3 proteins in TTBS with 20% Protein-Free Blocking Buffer and 1 mM DTT; anti-GST detection; settings: both partners purified
# [6] = target: T3, GST-14-3-3ζ (human 14-3-3ζ); experiment: far-Western, overlay or dot blot; settings: both partners purified
# [7] = target: T4, GST-14-3-3τ (human 14-3-3τ fused to …); experiment: SPR; settings: both partners purified
molecule,measurement,setting,value
[Ca+2].[Cl-].[Cl-] [CaCl2],"effect on interacting proteins, CalA (−) vs (+), with or without calcium",[1],no major difference
COC[C@@H]([C@H](O)[C@H](O)C(=O)NCC[C@H](C)c1nc(/C=C/C[C@@H]2O[C@]3(C[C@@H](O)[C@@H]2C)O[C@H]([C@H](C[C@H](O)[C@H](C)[C@H](O)[C@H](C)/C=C(C)/C(C)=C/C=C/C(C)=C\C#N)OC)[C@H](OP(=O)(O)O)C3(C)C)co1)N(C)C [calyculin A],"effect on interacting proteins, CalA (−) vs (+), with or without calcium",[1],no major difference
same,number and amounts of the 14-3-3τ-interacting protein upon treatment,"[1]; PCF and HeLa cells, probe GST-τ",increased
CSCC[C@H](NC(=O)CCCC[C@@H]1SC[C@@H]2NC(=O)N[C@@H]21)C(=O)N[C@@H](C)C(=O)NCC(=O)NCC(=O)NCC(=O)N[C@@H](CCCNC(=N)N)C(=O)N[C@@H](CCC(N)=O)C(=O)N[C@@H](CCCNC(=N)N)C(=O)N[C@@H](CO)C(=O)N[C@H](C(=O)N[C@@H](COP(=O)(O)O)C(=O)N[C@H](C(=O)N1CCC[C@H]1C(=O)N[C@@H](CC(N)=O)C(=O)O)[C@@H](C)O)[C@@H](C)O [pSRaf259] (Biotin-MAGGGRQRST[pS]TPN-OH),Kd,human 14-3-3τ,220 nM
"-LIEGRKQTVG [ACS, putative mode 3 synthetic phosphopeptide derived from ACS (acetyl-CoA synthetase, putative)]",interaction with spotted phosphopeptide,[2],would not interact
same,interaction with spotted phosphopeptide,human 14-3-3ζ,would not interact
-WLTRSRSLW [PP2c],interaction with spotted phosphopeptide,[2],failed to show the interactions
"Biotin-MAGGGRQRSTSTPN [pRaf259, c-Raf-derived peptide in which 259Ser is unphosphorylated]",peptide pull-down interaction,"[3]; T. brucei PCF lysates, 5×10^8 cells/pull-down, Western blot α-II",did not interact
same,"peptide pull-down interaction, longer exposure","[3]; T. brucei PCF lysates, Western blot α-II, longer exposure",weak interaction
same,"amount of captured 14-3-3II, phospho- vs non-phospho-peptide beads",[3]; longer exposure,not different between phospho-(pSRaf259) and non-phospho-(pRaf259) peptide-conjugated beads
same,peptide pull-down interaction,"[4]; T. brucei PCF lysates, 5×10^8 cells/pull-down, Western blot α-I",did not interact
same,recovery of 14-3-3I by peptide-conjugated beads,[4]; longer exposure,No 14-3-3I was recovered
HVSGLKRRRpSV [p31-SAP part of …pSV],interaction with spotted phosphopeptide,[2],high-affinity
"MGGGLTRSRpSL [PP2c (-W), mode 3 phosphopeptide derived from PP2c-W]",interaction with spotted phosphopeptide,[2],failed to show the interactions
same,interaction with spotted phosphopeptide,[2]; listed as MGGGLTRSRpSL,not detected
same,interaction with spotted phosphopeptide,human 14-3-3ζ,interacts with both phosphopeptides but with the preferential binding to the mode 3 peptide derived from p31-SAP
Biotin-MAGGGRQRST[pS]TPN (spacer before the c-Raf stretch; human c-Raf 1 stretch around Ser-259; also called mode 1 peptide; mode 1 phosphopeptide; source: synthetic peptide) [c-Raf-derived phosphopeptide pSRaf259 (biotin-MAGGGRQRSTpSTPN)],binding result,MBP-14-3-3τ,binds
same,binding result,[5],binds
"Biotin-MAGGGRLYH[pS]LP (not fully specified, also called mode 2 peptide) [mode 2 phosphopeptide (biotin-[residues removed]pSLP)]",binding result,[6],binds
same,binding result,[7],binds
